Read-outs that look alike come from different tables or passages of the source.
What was measured:
human RAR-α [1] = experiment: RAR-α transactivation assay (SeAP reporter, COS cells); type: cell-based; conditions: for Transactivation % max (α): relative to all-trans-retinoic acid at same concentration (1,000 nM or 10,000 nM)
Experimental: (§1) Retinoid Receptor Transactivation Assays
(§2) Transactivation assays were performed essentially as described in Apfel et al., supra. For the RAR transcription activation test system, the secreted alkaline phosphatase gene (SeAP) is used as reporter. To have a screening system specific for the transfected receptor, chimeric receptors are used. These contain an estrogen receptor DNA binding domain and therefore recognize the estrogen response element (ERE) which no endogenous RAR's in mammalian cells will recognize.
(§3) The transactivation assay system has been adapted to 96-well plates and most steps are done by a robot. Briefly, on day 1 confluent COS cells are subcultured at an equivalent density onto 96-well plates in DMEM+10% charcoal stripped serum. On day 2 DNA is prepared for transfection by mixing the following: 10 μg vit-TK-SeAP reporter plasmid, 2 μg RAR expression plasmid, 2 μg transfection control plasmid and 30 μl Transfectam (lipopolyamine transfection reagent). Cells are washed twice with serum-free medium and DNA/transfectam mix added. After 1 hour medium is removed and replaced with growth medium containing test retinoids. On day 4 or 5 the culture supernatant is removed, heated to 65° for 5 min to inactivate nonspecific phosphatases, and diluted 1:10 with water. 20 μl samples are added to 100 μl of phosphatase substrate in buffer. After 1 hour at 37° the luminescence is measured in a 96-well luminometer.
(§4) 100 μl of β-galactosidase substrate is added to the adherent cells. Plates are incubated for 1 hour at 37° and the supernatants transferred to separate plates for quantitation of β-galactosidase activity by luminescence measurement. Transactivation results are expressed as the ratio of SeAP/β-galactosidase activity for each well to correct for well-to-well variation in transfection efficiency.
(§5) Data are means of values obtained from two or more individual experiments, rounded off to two significant figures. […] The maximum transactivation activity is determined from the plot where increasing dosage provides little or no additional activity, i.e., where the plot begins to level off. For active retinoids the highest concentration tested is 1000 nM.

RAR-β = RAR-β transactivation assay (SeAP reporter, COS cells); type: cell-based, human; conditions: for Transactivation % max (β): relative to all-trans-retinoic acid at same concentration (1,000 nM or 10,000 nM)
Experimental: as §1, §2, §3, §4, §5

human RAR-γ [2] = experiment: RAR-γ transactivation assay (SeAP reporter, COS cells); type: cell-based; conditions: for Transactivation % max (γ): relative to all-trans-retinoic acid at same concentration (1,000 nM or 10,000 nM)
Experimental: as §1, §2, §3, §4, §5

photodamaged skin = experiment: Measurement of photodamage repair in the hairless mouse model; type: in vivo, Hairless mice (female, HRS/J strain); conditions: for Photodamage repair activity (scale 0 to 4): UVB-irradiated, topical in acetone three times per week, three doses
Source text: The ability of a composition of the invention to induce repair of photodamaged skin may be determined by any conventional means. One conventional method of determining the ability of a topical composition to repair photodamaged skin is the hairless mouse model described by Kligman et al., supra. […] In this model, repair is defined by the appearance of a zone of normalized dermis extending from the epidermis down to the layer of compressed elastin. The extent of repair is reflected by the width of this zone. […] The average width of the repair zone is then calculated by dividing the area by the length of the histological section that was measured.
The width of the repair zone is […] an activity value of 4.
Measurement of Photodamage Repair
Hairless mice (female, HRS/J strain, Jackson Labs, 5-7 weeks old at the start of the experiments) were housed in yellow light and irradiated three times per week with a bank of 8 Westinghouse Sunlamps (FS120) placed about 20 cm above the animals. Daily doses were 0.03 J/cm^2 for two weeks, 0.06 J/cm2 for two weeks and 0.08 J/cm2 thereafter. The radiation dose is controlled by an International Light Model IL844A Phototherapy Exposure Control and a model SEE240 detector.
To effect repair of the dermal damage, the UVB irradiation was discontinued and the animals were divided into groups of approximately eight and treated three times per week with various concentrations of the retinoids dissolved in acetone. Stock solutions are made up freshly every week in subdued light at concentrations such that the dose is delivered in 100 μl volume and applied topically with a plastic pipette to an area of about 10 cm^2 on the back of the animal. All dosing was done under yellow light. A control group treated with acetone alone was included.
Two-cm strips of dorsal skin were taken longitudinally down the center of the irradiated (and treated) area. Elastin fibers were stained with Luna's aldehyde fuchsin and collagen by Van Gieson. In this model, repair is defined by the appearance of a normalized dermis extending from the epidermis down to the layer of compressed elastin. The extent of repair is reflected by the width of this zone. […] Twenty-four fields each of which, at 100X magnification, represents a section of tissue 0.57 mm long, are examined and the area calculated. The results are reported as the average area per field in mm^2. Thus the average width of the repair zone can be obtained by dividing this average area by 0.57 mm. […] All microscopic fields are included in the calculations of average area (or width). Data are analyzed by Student's t-test.
Compounds are tested at three doses and an approximate ED50 calculated.

photoaged skin = conditions: human, topical, literature studies; cited from earlier work
human RAR-α [3] = molecular target: T1, human RAR-α (Homo sapiens, UniProt P10276); experiment: Binding assay for human RAR-α (displacement of 3H-retinoic acid); conditions: 3H-retinoic acid displacement, mean of two or more experiments
T1 sequence (P10276 201-462 limits assumed): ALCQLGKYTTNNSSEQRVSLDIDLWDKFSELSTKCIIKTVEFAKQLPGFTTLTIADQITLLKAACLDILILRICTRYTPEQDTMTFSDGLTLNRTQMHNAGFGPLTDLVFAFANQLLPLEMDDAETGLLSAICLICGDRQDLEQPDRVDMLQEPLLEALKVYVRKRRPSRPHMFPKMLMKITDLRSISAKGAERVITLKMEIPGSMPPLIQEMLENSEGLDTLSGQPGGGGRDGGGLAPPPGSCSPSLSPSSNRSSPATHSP

human RAR-β = molecular target: T2, human RAR-β (Homo sapiens, UniProt P10826); experiment: Binding assay for human RAR-β (displacement of 3H-retinoic acid); conditions: 3H-retinoic acid displacement, mean of two or more experiments
T2 sequence (P10826 201-455 limits assumed): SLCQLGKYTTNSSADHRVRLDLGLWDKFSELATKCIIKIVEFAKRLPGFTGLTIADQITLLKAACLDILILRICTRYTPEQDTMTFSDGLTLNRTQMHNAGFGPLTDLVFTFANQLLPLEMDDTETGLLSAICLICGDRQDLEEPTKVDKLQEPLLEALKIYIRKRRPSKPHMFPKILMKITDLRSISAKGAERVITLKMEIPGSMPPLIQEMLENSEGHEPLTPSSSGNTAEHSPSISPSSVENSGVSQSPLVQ
Experimental: (§6) Binding Assay for Human RAR-α, RAR-β and RAR-γ
(§7) Binding assays were performed essentially as described in Apfel et al., supra. […] Extracts containing the receptors were used in a competitive binding assay which depends upon the ability of increasing concentrations of a retinoid to displace ^3 H-retinoic acid. In a typical assay, 0.2 to 0.4 picomoles of receptors were incubated in 0.2 ml of 50 mM Tris HCl, pH 7.4, 50 mM NaCl, 2 mM EDTA (binding buffer) containing 0.5% gelatin, 1% DMSO, 2-5 nM ^3 H-retinoic acid and various concentrations of unlabelled retinoids. After 3-5 hours at 22° C., 0.15 ml of chilled charcoal/dextran suspension (5% Norit A/0.5% dextran T-40 in binding buffer) were added for 15 min at 4° C. The tubes were centrifuged at 12,000 x g for 15 minutes and the supernates counted. Binding parameters were calculated from competition curves using the Ligand program.
(§8) Data are means of values obtained from two or more individual experiments, rounded off to two significant figures. […] When binding inhibition at 10,000 nM is less than 50%, >10,000 is indicated.

human RAR-γ [4] = experiment: Binding assay for human RAR-γ (displacement of 3H-retinoic acid); conditions: 3H-retinoic acid displacement, mean of two or more experiments
Experimental: as §6, §7, §8

[5] = COS cells, 50% of the compound's own maximum, set to highest concentration tested (usually 1000 nM) if no maximum reached, read-out: Transactivation ED50 (α)
[6] = COS cells, 50% of the compound's own maximum, set to highest concentration tested (usually 1000 nM) if no maximum reached, read-out: Transactivation ED50 (β)
[7] = RAR-γ, COS cells, 50% of the compound's own maximum, set to highest concentration tested (usually 1000 nM) if no maximum reached, read-out: Transactivation ED50 (γ)

Compound | IC50 (human RAR-α [3]) [nM] | IC50 (human RAR-β) [nM] | IC50 (human RAR-γ [4]) [nM] | EC50 (human RAR-α [1]; [5]) [nM] | EC50 (RAR-β; [6]) [nM] | EC50 (human RAR-γ [2]; [7]) [nM] | EC50 (human RAR-α [1]; read-out: Transactivation ED50 (α), COS cells, 50% of the compound's own maximum, set to highest concentration tested (usually 1000 nM) if no maximum reached) [nM] | Transactivation % max (α) (human RAR-α [1]) [%] | EC50 (RAR-β; read-out: Transactivation ED50 (β), COS cells, 50% of the compound's own maximum, set to highest concentration tested (usually 1000 nM) if no maximum reached) [nM] | Transactivation % max (β) (RAR-β) [%] | EC50 (human RAR-γ [2]) [nM] | Transactivation % max (γ) (human RAR-γ [2]; RAR-γ) [%] | Photodamage repair activity (scale 0 to 4) (photodamaged skin) | ED50 for photodamage repair (photodamaged skin; μg of test compound applied to 10 cm^2 of skin area, standard retinoid) [µg] | Clinical improvement of photodamaged/photoaged skin (photoaged skin)
CC1=C(/C=C/C(C)=C/C=C/C(C)=C\C(=O)O)C(C)(C)CCC1 [B, 13-cis retinoic acid, reference compound] | – | – | – | – | – | – | […] | […] | […] | […] | […] | […] | 2 (an ED50 of 10 μg) | 10 | efficacy of isotretinoin in photodamage has been demonstrated
CCS(=O)(=O)c1ccc(/C=C(\C)c2ccc3c(c2)C(C)(C)CCC3(C)C)cc1 [I] | > 10000 | > 10000 | > 10000 | 1000 | 1000 | 1000 | – | 10 | – | 21 | – | 21 | 3 (an ED50 of 1 μg or less (highly active)) | – | –
CCCCCCc1cc2c(cc1/C=C/C=C/C(C)=C/C(=O)O)C(C)(C)CCC2(C)C [N] | 1500 | 2900 | 170 | 1000 | 1000 | 64 | – | 63 | – | 60 | – | 123 | 4 | – | –
CCCCCOc1cc2c(cc1/C=C/C=C/C(C)=C/C(=O)O)C(C)(C)CCC2(C)C [Q] | > 10000 | 9300 | 2000 | 1000 | 150 | 29 | – | 45 | – | 81 | – | 96 | 4 | – | –

Now from value to molecule, other results behind:

IC50 (human RAR-α [3]) [nM] | IC50 (human RAR-β) [nM] | IC50 (human RAR-γ [4]) [nM] | EC50 (human RAR-α [1]; [5]) [nM] | EC50 (RAR-β; [6]) [nM] | EC50 (human RAR-γ [2]; [7]) [nM] | Compound | EC50 (human RAR-α [1]; read-out: Transactivation ED50 (α), COS cells, 50% of the compound's own maximum, set to highest concentration tested (usually 1000 nM) if no maximum reached) [nM] | Transactivation % max (α) (human RAR-α [1]) [%] | EC50 (RAR-β; read-out: Transactivation ED50 (β), COS cells, 50% of the compound's own maximum, set to highest concentration tested (usually 1000 nM) if no maximum reached) [nM] | Transactivation % max (β) (RAR-β) [%] | EC50 (human RAR-γ [2]) [nM] | Transactivation % max (γ) (human RAR-γ [2]; RAR-γ) [%] | Photodamage repair activity (scale 0 to 4) (photodamaged skin) | ED50 for photodamage repair (photodamaged skin; μg of test compound applied to 10 cm^2 of skin area, standard retinoid) [µg] | Clinical improvement of photodamaged/photoaged skin (photoaged skin)
2200 | 2300 | 210 | 1000 | 88 | 15 | CCCCCCc1cc2c(cc1/C=C/c1ccc(C(=O)O)cc1)C(C)(C)CCC2(C)C [M] | – | 24 | – | 62 | – | 36 | 4 | – | –
1500 | 1800 | 170 | 130 | 30 | 6 | CCCCc1cc2c(cc1/C=C/c1ccc(C(=O)O)cc1)C(C)(C)CCC2(C)C [O] | – | 56 | – | 88 | – | 105 | 4 | – | –
> 10000 | 7600 | 670 | 1000 | 150 | 29 | CCCCCOc1cc2c(cc1/C=C/c1ccc(C(=O)O)cc1)C(C)(C)CCC2(C)C [P] | – | 16 | – | 60 | – | 90 | 4 | – | –

Reference: patent US5807900A, “Method for identifying compounds having increased activity for the repair of skin photodamage” (priority 1995, dated 1998)
